Measured values reported in patent US9604961B2, “Histone demethylase inhibitors” (Celgene Quanticel Research, Inc., priority 2012, dated 2017).

How the values were obtained:
JMJD2A = JMJD2A (Homo sapiens (Human), UniProt O75164); experiment: JMJD2A in vitro enzyme inhibition assay (TR-FRET); settings: read-out: JMJD2A IC50
Procedure: This assay determines the ability of a test compound to inhibit Jarid1A, Jarid1B, JMJD2C, and JMJD2A demethylase activity.
Reaction product was determined quantitatively by TR-FRET after the addition of detection reagent Phycolink Streptavidin-allophycocyanin (Prozyme) and Europium-anti-di-methylated histone H3 lysine 9 (H3K9me2) antibody (PerkinElmer) in the presence of 5 mM EDTA in LANCE detection buffer (PerkinElmer) at a final concentration of 50 nM and 1 nM, respectively.
The assay reaction was initiated by the following: 2 μl of the mixture of 900 nM H3K9me3-biotin labeled peptide and 6 μM alpha-ketoglutaric acid with 2 μl of 11-point serial diluted inhibitor in 3% DMSO were added to each well of plate, followed by the addition of 2 μl of 6 nM JMJD2A to initiate the reaction. The reaction mixture was incubated at room temperature for 30 minutes, and terminated by the addition of 6 μl of 5 mM EDTA in LANCE detection buffer containing 100 nM Phycolink Streptavidin-allophycocyanin and 2 nM Europium-anti-H3K9me2 antibody.

Jarid1B = Jarid1B (Homo sapiens (Human), UniProt Q9UGL1); experiment: Jarid1B in vitro enzyme inhibition assay (TR-FRET); type: biochemical
KDM5A/B = experiment: In vitro cell-based assay: quantitative immuno-blotting of tri-methyl H3K4 in ZR-75-1 breast cancer cells; settings: Homo sapiens, 72 hours exposure, read-out: Cellular IC50
Source text: This quantitative immuno-blotting assay measures the amount tri-methylated histone H3 at amino acid Lysine number 4, a specific substrate […] of the direct enzymatic activity of the histone demethylases KDM5A and KDM5B from extracts of the ZR-75-1 breast cancer cell line.
This assay is a fluorometric immunoassay for the quantification of tri-methyl H3K4 extracted from cells treated with test compound and is used as a measure of the cellular inhibition of KDM5A/B.
ZR-75-1 (PTEN null, ER+) breast cancer cells numbering 50,000 (ATCC) were seeded into each well of a 96-well tissue culture treated plate and then exposed to an 11 point dilution of test compound with final concentration ranges of test compound ranging from […] to 10 nM. […] Extracts were prepared containing all of the cellular histone material using detergent based lysis and sonication methods. These lysates were subsequently normalized for total protein content using a colorimetric bicinchonic acid assay (MicroBCA Pierce/Thermo Scientific). Normalized cell extracts were then subjected to typical immuno-blotting procedures using NuPage reagents (Life Technologies). Electrophoretically separated histones were then transferred and immobilized using polyvinylidene difluoride membrane (Immobilon-FL Millipore). The amount of tri-methylated lysine 4 of histone H3 was detected using an antibody specific to the tri-methylated state (Cell Signaling Technologies) and quantified on an infrared imager using a densitometry software package (Odyssey CLx, Image Studio, Li-Cor). This background subtracted densitometry value was reported as a ration of the GAPDH amount for that sample and then calculated as a percent of the DMSO treated sample. The software package XL-fit (IDBS) was then used to calculate a relative IC50 value for the dilution series of a given test compound according to the equation: fit=(D+((Vmax*(x^n))/((x^n)+(Km^n)))).

JMJD2C = JMJD2C (Homo sapiens (Human), UniProt Q9H3R0); experiment: JMJD2C in vitro enzyme inhibition assay (TR-FRET); type: biochemical
Sequence of JMJD2C (Q9H3R0 2-372): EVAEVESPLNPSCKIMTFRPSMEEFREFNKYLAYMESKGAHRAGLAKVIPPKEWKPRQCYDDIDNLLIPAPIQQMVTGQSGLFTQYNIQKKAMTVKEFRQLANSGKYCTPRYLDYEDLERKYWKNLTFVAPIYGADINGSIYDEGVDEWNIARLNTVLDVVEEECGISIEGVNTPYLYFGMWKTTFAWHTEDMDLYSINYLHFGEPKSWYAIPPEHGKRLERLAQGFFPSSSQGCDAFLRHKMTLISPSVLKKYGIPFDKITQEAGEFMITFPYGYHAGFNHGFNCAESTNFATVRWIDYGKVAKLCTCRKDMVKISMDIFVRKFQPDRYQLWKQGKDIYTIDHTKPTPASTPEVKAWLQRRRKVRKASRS

FBXL10 = FBXL10 (Homo sapiens (Human), UniProt Q8NHM5); experiment: FBXL10 in vitro enzyme inhibition assay (AlphaScreen); type: biochemical
Sequence of FBXL10 (Q8NHM5 1-650): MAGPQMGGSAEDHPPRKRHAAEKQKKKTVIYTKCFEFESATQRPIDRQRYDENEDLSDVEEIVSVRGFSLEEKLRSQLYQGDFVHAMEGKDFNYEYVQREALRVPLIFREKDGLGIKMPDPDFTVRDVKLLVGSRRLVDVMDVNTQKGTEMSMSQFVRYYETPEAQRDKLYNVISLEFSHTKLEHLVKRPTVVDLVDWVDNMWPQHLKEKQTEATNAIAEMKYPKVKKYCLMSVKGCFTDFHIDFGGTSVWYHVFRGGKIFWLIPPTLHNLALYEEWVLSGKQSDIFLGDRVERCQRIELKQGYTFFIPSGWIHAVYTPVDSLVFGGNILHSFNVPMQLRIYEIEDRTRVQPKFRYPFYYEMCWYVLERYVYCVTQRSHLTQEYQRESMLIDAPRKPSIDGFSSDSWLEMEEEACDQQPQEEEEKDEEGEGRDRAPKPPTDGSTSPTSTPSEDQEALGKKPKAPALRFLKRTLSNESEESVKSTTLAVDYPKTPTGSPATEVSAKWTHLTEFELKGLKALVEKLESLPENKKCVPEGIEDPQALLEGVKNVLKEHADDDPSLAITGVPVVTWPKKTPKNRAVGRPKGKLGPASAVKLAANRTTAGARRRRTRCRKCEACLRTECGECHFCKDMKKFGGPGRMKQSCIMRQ
Procedure: Reaction product was determined quantitatively by AlphaScreen detection after the addition of detection reagents anti-H3K36me1 antibody, AlphaScreen® Streptavidin-coated Donor beads, and AlphaScreen® Protein A Acceptor beads in 50 mM HEPES, pH7.3, 10 mM NaCl, 0.005% Brij35, 5 mM EDTA, 2 mg/ml BSA to final 10 μg/ml beads.
Plates were incubated at room temperature for 40 minutes, followed by addition of 3 μl of 50 μg/ml AlphaScreen® Streptavidin-coated Donor beads and AlphaScreen® Protein A Acceptor beads in 50 mM HEPES, pH7.3, 10 mM NaCl, 0.005% Brij35, 5 mM EDTA, 2 mg/ml BSA. Plates were read by EnVisionMultilabel Reader in AlphaScreen mode after a minimum of 2 hour or up to overnight incubation at room temperature. The AlphaScreen signal for each well was used to determine inhibition constant (IC50).

Jarid1A = Jarid1A (Homo sapiens (Human), UniProt P29375); experiment: Jarid1A in vitro enzyme inhibition assay (TR-FRET); type: biochemical
Sequence of Jarid1A (P29375 1-1090): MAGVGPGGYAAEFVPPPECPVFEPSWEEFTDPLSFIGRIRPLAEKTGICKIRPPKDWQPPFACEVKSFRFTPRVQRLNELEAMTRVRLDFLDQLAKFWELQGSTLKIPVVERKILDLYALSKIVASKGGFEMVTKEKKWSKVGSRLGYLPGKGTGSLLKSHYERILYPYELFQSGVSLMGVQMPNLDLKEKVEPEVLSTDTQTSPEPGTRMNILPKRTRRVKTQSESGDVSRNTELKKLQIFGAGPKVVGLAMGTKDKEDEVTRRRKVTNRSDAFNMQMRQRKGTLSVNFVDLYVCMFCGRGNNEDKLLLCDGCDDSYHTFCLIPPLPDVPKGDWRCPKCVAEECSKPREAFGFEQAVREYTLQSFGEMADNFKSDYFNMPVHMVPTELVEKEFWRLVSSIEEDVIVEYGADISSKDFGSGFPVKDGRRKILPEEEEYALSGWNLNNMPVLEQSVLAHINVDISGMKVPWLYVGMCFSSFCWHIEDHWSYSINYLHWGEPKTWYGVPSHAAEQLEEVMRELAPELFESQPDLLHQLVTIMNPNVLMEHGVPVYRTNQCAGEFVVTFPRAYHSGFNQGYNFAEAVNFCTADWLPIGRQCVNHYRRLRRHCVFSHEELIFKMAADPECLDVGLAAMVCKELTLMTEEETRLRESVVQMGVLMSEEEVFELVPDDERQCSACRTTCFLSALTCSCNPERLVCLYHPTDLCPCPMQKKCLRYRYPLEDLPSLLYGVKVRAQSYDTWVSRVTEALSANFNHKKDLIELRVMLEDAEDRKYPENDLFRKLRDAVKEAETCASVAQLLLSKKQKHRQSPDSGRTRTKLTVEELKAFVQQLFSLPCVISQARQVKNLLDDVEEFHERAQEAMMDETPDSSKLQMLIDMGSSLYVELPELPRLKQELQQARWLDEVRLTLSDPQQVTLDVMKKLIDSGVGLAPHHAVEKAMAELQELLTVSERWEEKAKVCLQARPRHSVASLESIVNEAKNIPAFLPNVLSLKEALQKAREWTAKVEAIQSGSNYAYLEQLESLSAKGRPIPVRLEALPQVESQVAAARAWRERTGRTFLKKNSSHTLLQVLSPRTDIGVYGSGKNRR
Source text: The enzymatic assay of Jarid1A activity is based upon Time Resolved-Fluorescence Resonance Energy Transfer (TR-FRET) detection.

Sequence of Jarid1B (Q9UGL1 2-751): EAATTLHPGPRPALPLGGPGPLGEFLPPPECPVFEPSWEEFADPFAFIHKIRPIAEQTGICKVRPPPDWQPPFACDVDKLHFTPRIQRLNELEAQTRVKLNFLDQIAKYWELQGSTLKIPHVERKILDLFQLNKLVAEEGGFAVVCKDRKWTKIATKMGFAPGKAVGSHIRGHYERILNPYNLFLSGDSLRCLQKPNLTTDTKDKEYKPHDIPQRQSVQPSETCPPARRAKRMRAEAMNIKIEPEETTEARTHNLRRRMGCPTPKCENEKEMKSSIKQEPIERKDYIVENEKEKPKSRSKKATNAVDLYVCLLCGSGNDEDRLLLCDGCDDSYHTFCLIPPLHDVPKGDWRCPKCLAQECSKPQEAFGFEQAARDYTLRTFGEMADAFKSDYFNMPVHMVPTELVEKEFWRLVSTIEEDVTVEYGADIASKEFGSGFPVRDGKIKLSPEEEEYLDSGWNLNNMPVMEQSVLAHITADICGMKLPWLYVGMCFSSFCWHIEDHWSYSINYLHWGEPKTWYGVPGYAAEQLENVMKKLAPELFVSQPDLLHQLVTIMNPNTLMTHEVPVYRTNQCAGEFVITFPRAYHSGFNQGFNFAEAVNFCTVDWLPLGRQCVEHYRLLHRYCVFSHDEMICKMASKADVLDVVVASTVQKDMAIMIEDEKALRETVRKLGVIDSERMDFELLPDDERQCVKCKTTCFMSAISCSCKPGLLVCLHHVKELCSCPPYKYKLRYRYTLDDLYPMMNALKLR
Sequence of JMJD2A (O75164 1-350): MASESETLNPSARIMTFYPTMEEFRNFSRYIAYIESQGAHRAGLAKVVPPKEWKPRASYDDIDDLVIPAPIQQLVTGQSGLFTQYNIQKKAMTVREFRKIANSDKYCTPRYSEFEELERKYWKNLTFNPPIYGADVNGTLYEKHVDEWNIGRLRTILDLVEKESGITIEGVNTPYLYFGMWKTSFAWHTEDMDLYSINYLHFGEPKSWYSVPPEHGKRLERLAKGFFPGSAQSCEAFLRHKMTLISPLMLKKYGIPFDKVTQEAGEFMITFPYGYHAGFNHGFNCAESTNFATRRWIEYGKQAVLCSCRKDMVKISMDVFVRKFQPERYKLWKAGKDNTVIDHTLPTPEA

Row | SMILES | IC50 (JMJD2A) [µM] | IC50 (Jarid1B) [µM] | IC50 (KDM5A/B) [µM] | IC50 (JMJD2C) [µM] | IC50 (FBXL10) [µM] | IC50 (Jarid1A) [µM]
1 | COc1cc(C)ccc1COc1ccnn1-c1cc(C(=O)O)ccn1 [Example 133, 2-[5-[(2-methoxy-4-methylphenyl)methoxy]pyrazol-1-yl]pyridine-4-carboxylic acid] | 0.1 to 1 | < 0.1 | 0.1 to 1 | 0.1 to 1 | 1 to 10 | < 0.1
2 | Cc1cc(Cl)ccc1COc1ccnn1-c1cc(C(=O)O)ccn1 [Example 89, 2-[5-[(4-chloro-2-methylphenyl)methoxy]pyrazol-1-yl]pyridine-4-carboxylic acid] | – | < 0.1 | < 0.1 | 0.1 to 1 | 0.1 to 1 | < 0.1
3 | Cn1ncc2ccc(COc3ccnn3-c3cc(C(=O)O)ccn3)cc21 [Example 50, 2-{5-[(1-methyl-1H-indazol-6-yl)methoxy]-1H-pyrazol-1-yl}pyridine-4-carboxylic acid] | – | < 0.1 | > 10 | – | 0.1 to 1 | < 0.1
4 | O=C(O)c1ccnc(-n2nccc2OCc2ccc(Cl)c(Cl)c2)c1 [Example 87, 2-[5-[(3,4-dichlorophenyl)methoxy]pyrazol-1-yl]pyridine-4-carboxylic acid] | – | < 0.1 | 0.1 to 1 | 0.1 to 1 | – | < 0.1
5 | Cc1cc(C#N)ccc1COc1ccnn1-c1cc(C(=O)O)ccn1 [Example 125, 2-[5-[(4-cyano-2-methylphenyl)methoxy]pyrazol-1-yl]pyridine-4-carboxylic acid] | – | < 0.1 | 1 to 10 | 0.1 to 1 | – | < 0.1
6 | O=C(O)c1ccnc(-n2nccc2OCc2ccc(Cl)cc2OCc2ccc(F)cc2)c1 [Example 117, 2-[5-[[4-chloro-2-[(4-fluorophenyl)methoxy]phenyl]methoxy]pyrazol-1-yl]pyridine-4-carboxylic acid] | 1 to 10 | 0.1 to 1 | 1 to 10 | 1 to 10 | 1 to 10 | 0.1 to 1
7 | O=C(O)c1ccnc(-n2nccc2OCc2ccc(Cl)c(F)c2)c1 [Example 74, 2-{5-[(4-chloro-3-fluorobenzyl)oxy]-1H-pyrazol-1-yl}pyridine-4-carboxylic acid] | – | < 0.1 | 1 to 10 | < 0.1 | – | < 0.1
